In ChEMBL document CHEMBL1201862, “PubChem BioAssay data set” (2004):
Activity calls are given as the source filed them.

Columns and labels:
Assay type in all cases: functional
[1] = target: Serine/threonine-protein kinase MRCK alpha (Homo sapiens, UniProt Q5VT25)
[2] = target: Cyclin-dependent kinase 5 (Homo sapiens, UniProt Q00535);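 further: CDK5 measured as one member of a kinase profiling panel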
SRSF protein kinase 1 = SRSF protein kinase 1 (Homo sapiens, UniProt Q96SB4);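 further: measured as one member of a kinome-wide kinase profiling panel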
[3] = target: Cyclin-dependent kinase 1 (Homo sapiens, UniProt P06493);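 further: Kinome-wide panel profiling, with the target listed as panel member CDC2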
[4] = target: Interleukin-1 receptor-associated kinase 4 (Homo sapiens, UniProt Q9NWZ3)
[5] = target: T1, Glycogen synthase kinase-3 beta (Homo sapiens, UniProt P49841);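 further: value comes from a broad kinome profiling panel, with GSK3B as the panel member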
[6] = target: Cell division cycle 7-related protein kinase (Homo sapiens, UniProt O00311);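 further: value obtained from a kinome-wide kinase panel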
[7] = target: Mitogen-activated protein kinase kinase kinase kinase 4 (Homo sapiens, UniProt O95819)
[8] = target: Serine/threonine-protein kinase pim-1 (Homo sapiens, UniProt P11309)
[9] = target: cAMP-dependent protein kinase catalytic subunit alpha (Homo sapiens, UniProt P17612)
[10] = target: Homeodomain-interacting protein kinase 2 (Homo sapiens, UniProt Q9H2X6);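 further: measured within a kinome-wide kinase profiling panel, HIPK2 being one panel member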
[11] = target: Dual specificity protein kinase CLK4 (Homo sapiens, UniProt Q9HAZ1)
Aurora kinase B = Aurora kinase B (Homo sapiens, UniProt Q96GD4)
Aurora kinase A = Aurora kinase A (Homo sapiens, UniProt O14965);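 further: value from the Navigating the Kinome kinase panel profiling, panel entry STK6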
[12] = target: Vascular endothelial growth factor receptor 2 (Homo sapiens, UniProt P35968)
[13] = target: Melanin-concentrating hormone receptor 1 (Homo sapiens, UniProt Q99705); experiment: Late-stage fluorescence-based counterscreen for antagonists of the G-protein coupled receptor 7 (GPR7): cell-based dose response assay to identify antagonists of the melanin-concentrating hormone receptor 1 (MCHR1) Set 6.
[14] = target: T2, Neuropeptides B/W receptor type 1 (Homo sapiens, UniProt P48145); experiment: GPR7 antagonist potency, late-stage follow-up, cell-based, fluorescence, dose response, set 6 (AID 588583)
T2 sequence (P48145 whole entry): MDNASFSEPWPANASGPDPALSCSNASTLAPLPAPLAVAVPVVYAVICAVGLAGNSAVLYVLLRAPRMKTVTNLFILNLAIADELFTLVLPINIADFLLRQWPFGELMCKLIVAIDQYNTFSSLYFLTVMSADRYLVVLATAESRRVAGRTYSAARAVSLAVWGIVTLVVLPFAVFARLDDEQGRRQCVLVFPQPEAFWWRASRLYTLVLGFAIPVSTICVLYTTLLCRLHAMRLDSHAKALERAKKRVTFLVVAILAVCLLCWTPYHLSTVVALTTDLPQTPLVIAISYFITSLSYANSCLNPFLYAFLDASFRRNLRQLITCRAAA

[15] = target: Glycogen synthase kinase-3 alpha (Homo sapiens, UniProt P49840); experiment: human GSK3 alpha kinase inhibition, dose response, selectivity assay for GSK3beta inhibitor project, biochemical, microfluidics, dry powder samples, set 2 (AID 623978)
[16] = target: DNA dC->dU-editing enzyme APOBEC-3G (Homo sapiens, UniProt Q9HC16); experiment: Dose Response confirmation of small molecule APOBEC3G DNA Deaminase Inhibitors via a fluorescence-based single-stranded DNA deaminase assay. [Related pubchem assays (depositor defined):AID493012, AID493028]
[17] = target: DNA dC->dU-editing enzyme APOBEC-3A (Homo sapiens, UniProt P31941); experiment: APOBEC3A DNA deaminase inhibitors, dose response, biochemical (AID 504722)
[18] = target: T1, Glycogen synthase kinase-3 beta; experiment: GSK3beta kinase inhibitors, dose response, biochemical, microfluidics, dry powder samples, set 2 (AID 623989)
[19] = target: Cyclin-dependent kinase 5/CDK5 activator 1 (Homo sapiens, UniProt Q00535); experiment: CDK5-p25 kinase inhibition, dose response, selectivity assay for GSK3beta inhibitor project, biochemical, microfluidic mobility shift, dry powder, set 2 (AID 623979)

T1 sequence (P49841 whole entry): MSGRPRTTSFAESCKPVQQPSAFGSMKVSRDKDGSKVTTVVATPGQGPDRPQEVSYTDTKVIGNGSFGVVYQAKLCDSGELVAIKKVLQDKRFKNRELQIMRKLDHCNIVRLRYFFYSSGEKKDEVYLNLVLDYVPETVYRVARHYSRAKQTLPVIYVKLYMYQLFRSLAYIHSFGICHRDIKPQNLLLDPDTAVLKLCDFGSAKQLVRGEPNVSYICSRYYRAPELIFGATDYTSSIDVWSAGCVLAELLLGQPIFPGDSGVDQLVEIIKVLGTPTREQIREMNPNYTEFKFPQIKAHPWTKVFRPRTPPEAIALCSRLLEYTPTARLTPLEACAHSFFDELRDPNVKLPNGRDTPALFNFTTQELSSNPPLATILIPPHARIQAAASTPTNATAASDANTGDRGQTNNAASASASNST
Sequence of Interleukin-1 receptor-associated kinase 4 (Q9NWZ3 whole entry): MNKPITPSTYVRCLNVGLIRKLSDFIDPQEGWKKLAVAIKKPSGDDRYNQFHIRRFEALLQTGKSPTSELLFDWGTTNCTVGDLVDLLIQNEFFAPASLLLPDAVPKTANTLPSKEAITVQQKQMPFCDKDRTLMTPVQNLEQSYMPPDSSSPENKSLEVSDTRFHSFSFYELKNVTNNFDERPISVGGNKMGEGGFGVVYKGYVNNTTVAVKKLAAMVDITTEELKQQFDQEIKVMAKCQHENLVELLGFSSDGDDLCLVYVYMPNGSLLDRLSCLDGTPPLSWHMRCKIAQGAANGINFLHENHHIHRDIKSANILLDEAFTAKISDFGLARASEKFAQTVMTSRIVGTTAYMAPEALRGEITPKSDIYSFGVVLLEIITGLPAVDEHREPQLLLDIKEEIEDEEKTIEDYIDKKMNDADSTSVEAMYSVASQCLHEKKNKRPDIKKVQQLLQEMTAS
Sequence of Cyclin-dependent kinase 1 (P06493 whole entry): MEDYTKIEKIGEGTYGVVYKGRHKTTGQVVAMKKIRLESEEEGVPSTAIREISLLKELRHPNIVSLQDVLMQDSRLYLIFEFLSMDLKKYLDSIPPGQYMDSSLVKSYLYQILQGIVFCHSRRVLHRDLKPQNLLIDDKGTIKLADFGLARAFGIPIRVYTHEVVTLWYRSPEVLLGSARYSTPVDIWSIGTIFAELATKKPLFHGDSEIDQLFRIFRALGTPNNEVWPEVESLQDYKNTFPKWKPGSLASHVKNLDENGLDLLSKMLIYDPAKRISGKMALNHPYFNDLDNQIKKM
Sequence of Homeodomain-interacting protein kinase 2 (Q9H2X6 whole entry): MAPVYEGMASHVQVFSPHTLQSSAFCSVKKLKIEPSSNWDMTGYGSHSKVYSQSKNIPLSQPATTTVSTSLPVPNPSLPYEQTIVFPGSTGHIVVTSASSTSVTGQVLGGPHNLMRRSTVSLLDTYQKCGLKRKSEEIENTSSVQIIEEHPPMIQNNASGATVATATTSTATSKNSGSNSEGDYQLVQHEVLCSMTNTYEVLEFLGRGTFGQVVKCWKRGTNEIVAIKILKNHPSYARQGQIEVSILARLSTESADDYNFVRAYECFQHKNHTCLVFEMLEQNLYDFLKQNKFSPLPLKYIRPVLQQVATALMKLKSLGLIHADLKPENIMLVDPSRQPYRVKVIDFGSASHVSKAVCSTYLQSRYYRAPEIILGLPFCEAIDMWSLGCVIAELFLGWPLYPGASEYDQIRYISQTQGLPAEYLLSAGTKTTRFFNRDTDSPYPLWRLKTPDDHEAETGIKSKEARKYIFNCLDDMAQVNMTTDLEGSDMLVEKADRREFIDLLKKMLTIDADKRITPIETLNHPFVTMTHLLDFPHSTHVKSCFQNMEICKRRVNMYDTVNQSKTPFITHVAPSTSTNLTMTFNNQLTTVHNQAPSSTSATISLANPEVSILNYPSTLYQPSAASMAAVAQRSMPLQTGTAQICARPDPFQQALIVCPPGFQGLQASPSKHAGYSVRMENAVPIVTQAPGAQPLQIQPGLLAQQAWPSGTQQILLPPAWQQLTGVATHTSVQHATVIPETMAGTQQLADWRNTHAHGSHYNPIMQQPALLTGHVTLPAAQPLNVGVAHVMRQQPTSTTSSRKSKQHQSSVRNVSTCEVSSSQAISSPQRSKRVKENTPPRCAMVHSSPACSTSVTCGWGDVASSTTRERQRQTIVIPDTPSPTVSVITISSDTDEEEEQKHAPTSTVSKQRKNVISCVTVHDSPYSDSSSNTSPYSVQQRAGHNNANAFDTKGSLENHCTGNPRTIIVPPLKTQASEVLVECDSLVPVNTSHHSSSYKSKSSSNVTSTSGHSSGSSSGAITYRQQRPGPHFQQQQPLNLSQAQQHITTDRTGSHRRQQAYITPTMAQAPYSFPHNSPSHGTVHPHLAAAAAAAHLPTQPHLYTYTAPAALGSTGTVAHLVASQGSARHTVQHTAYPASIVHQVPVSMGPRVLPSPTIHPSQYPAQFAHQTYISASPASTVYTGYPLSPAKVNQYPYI
Sequence of Mitogen-activated protein kinase kinase kinase kinase 4 (O95819 whole entry): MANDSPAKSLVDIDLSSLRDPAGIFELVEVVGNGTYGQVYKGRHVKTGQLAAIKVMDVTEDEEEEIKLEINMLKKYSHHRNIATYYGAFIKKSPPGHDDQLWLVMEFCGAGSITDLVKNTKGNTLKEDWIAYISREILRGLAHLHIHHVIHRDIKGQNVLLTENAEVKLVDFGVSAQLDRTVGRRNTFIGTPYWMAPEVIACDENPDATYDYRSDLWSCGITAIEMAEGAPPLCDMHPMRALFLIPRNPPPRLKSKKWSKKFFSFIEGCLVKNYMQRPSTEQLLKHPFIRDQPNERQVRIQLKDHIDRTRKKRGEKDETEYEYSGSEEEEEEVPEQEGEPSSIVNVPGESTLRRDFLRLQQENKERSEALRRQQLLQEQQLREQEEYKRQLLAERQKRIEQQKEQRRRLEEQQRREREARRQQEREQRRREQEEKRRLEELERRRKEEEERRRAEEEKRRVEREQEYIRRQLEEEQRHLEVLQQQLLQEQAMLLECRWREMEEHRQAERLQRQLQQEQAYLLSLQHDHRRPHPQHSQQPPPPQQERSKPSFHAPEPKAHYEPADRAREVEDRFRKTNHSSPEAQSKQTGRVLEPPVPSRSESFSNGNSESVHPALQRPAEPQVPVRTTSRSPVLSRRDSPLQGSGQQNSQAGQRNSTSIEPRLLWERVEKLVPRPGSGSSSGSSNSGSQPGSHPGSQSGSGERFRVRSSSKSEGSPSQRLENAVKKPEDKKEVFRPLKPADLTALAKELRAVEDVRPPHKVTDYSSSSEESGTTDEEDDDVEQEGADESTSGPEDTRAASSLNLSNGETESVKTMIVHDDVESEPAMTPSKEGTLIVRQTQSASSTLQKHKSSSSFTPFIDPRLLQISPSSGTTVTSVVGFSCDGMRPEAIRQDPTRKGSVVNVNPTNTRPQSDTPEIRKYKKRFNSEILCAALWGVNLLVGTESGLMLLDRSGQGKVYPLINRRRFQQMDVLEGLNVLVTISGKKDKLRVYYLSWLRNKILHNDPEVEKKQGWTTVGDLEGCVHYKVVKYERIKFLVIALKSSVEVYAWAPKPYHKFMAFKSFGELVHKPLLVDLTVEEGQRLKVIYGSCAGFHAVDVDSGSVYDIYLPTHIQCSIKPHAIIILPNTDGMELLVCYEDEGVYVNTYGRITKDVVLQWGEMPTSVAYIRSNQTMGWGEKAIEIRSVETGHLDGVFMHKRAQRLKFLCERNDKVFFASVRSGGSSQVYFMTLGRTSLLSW
Sequence of Aurora kinase A (O14965 whole entry): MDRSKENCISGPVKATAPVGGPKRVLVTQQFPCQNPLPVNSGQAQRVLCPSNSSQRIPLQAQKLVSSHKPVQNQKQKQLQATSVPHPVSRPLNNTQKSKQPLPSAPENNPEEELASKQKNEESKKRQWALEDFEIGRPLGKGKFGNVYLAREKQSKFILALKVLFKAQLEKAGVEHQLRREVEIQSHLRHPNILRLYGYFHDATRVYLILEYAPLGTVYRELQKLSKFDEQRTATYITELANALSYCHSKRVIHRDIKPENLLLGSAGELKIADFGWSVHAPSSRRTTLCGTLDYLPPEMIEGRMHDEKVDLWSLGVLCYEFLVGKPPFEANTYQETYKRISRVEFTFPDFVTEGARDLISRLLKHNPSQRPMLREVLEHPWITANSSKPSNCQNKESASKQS
Sequence of DNA dC->dU-editing enzyme APOBEC-3G (Q9HC16 whole entry): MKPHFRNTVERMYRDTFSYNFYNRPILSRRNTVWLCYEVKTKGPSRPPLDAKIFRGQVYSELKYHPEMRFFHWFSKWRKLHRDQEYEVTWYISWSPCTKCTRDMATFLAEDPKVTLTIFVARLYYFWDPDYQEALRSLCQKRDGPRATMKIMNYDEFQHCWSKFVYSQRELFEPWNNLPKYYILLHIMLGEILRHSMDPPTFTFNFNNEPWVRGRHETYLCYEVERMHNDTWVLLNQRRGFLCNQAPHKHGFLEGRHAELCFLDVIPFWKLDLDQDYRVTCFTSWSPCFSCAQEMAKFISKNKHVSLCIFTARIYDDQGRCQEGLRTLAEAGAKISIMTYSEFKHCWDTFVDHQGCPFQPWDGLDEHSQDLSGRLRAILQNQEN
Sequence of Dual specificity protein kinase CLK4 (Q9HAZ1 whole entry): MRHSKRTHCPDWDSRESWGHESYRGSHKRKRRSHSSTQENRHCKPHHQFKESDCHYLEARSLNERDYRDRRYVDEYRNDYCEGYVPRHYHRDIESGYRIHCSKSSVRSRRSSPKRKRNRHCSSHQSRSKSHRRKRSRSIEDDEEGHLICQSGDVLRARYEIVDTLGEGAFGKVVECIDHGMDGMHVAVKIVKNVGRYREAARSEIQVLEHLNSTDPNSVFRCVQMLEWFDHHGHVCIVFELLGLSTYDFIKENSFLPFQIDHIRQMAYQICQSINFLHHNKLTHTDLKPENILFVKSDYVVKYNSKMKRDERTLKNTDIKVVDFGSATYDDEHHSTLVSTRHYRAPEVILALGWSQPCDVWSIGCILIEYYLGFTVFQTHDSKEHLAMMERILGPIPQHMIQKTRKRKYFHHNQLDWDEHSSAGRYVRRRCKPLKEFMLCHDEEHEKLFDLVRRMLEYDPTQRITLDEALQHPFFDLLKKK

CN(c1ccccc1-c1ccc2c(c1)Nc1ccccc1NC2=O)S(C)(=O)=O
Ki [1]: 6.31 µM (active)
Ki [2]: 5.01 µM (active)
Ki (SRSF protein kinase 1): 5.01 µM (active)
Ki [3]: 3.98 µM (active)
Ki [4]: 2.51 µM (active)

CNCCOc1cncc(-c2ccc3[nH]nc(C)c3c2)c1
Ki [5]: 2.51 µM (active)
Ki [6]: 0.0316 µM (active)
Ki [7]: 0.0794 µM (active)
Ki [8]: 0.794 µM (active)
Ki [9]: 0.794 µM (active)
Ki [10]: 2 µM (active)
Ki [11]: 0.01 µM (active)
Ki [4]: > 10 µM (inactive)

CC1(C)CC(C=Cc2ccc(Cl)cc2)=Cc2c1sc1ncnc(N)c21
Ki (Aurora kinase B): 0.2 µM (active)
Ki (Aurora kinase A): 0.1 µM (active)
Ki [12]: 0.126 µM (active)

N#CC(c1cc(F)ccc1F)c1c(Cl)cnn(Cc2cccc3ccccc23)c1=O (stereo not drawn)
IC50 [13]: 0.255 µM (active)
IC50 [14]: 0.255 µM (active)

Cc1ccc(-c2nnc(S)n2/N=C/c2ccncc2)cc1
AC50 [15]: 7.71 µM (active)
IC50 [16]: 2.48 µM (active)
IC50 [17]: > 100 µM (inactive)
AC50 [18]: 1.48 µM (active)
AC50 [19]: 19.3 µM (active)
